Laboratory results as given in PMC6028563, “Probing Substituents in the 1- and 3-Position: Tetrahydropyrazino-Annelated Water-Soluble Xanthine Derivatives as Multi-Target Drugs With Potent Adenosine Receptor Antagonistic Activity” (Frontiers in Chemistry, 2018).

Tests used:
rat A1 AR = target: T1, rat A1 AR (Rattus norvegicus, UniProt P25099); assay: Radioligand binding assay at rat A1 AR (rat brain cortex) vs. [^3H]CCPA; settings: rat (r); for Ki: rat brain cortex, n = 3; for inhibition at 1.5 µM: read-out: % inhibition of radioligand binding at indicated concentration, A1 vs. [^3H]CCPA, at 1,500 nM
T1 construct: A1 ARs of rat brain cortical membrane; from tissue; host or cells: rat brain cortex membranes
T1 sequence (P25099 1-326): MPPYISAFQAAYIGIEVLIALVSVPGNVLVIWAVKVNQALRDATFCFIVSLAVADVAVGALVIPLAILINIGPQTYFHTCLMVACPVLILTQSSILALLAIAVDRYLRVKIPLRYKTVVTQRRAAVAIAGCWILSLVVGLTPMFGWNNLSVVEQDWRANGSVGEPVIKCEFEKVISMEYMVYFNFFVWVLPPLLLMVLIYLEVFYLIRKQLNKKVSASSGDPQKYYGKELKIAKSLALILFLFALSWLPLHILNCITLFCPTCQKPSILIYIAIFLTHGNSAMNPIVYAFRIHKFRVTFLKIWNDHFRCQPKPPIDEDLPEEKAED
Protocol: (§1) Membrane preparations and radioligand binding assays at rat A1 (rat brain cortex) and rat A2A ARs (rat brain striatum) were performed as previously described (Ozola et al., [2003]; Alnouri et al., [2015]). For assays at human A1, A2A, A2B, and A3 ARs, CHO cell membranes expressing one of the human AR subtypes were used as previously reported (Klotz et al., [1998]; Alnouri et al., [2015]; De Filippo et al., [2016]).
(§2) The synthesized tetrahydropyrazino[2,1-f ]purinediones 13–20 were evaluated in radioligand binding assays for their affinity to A1 ARs of rat brain cortical membrane and to A2A ARs of rat brain striatal membrane preparations. Selected compounds were further investigated for their affinity to human A1 and A2A ARs recombinantly expressed in Chinese hamster ovary (CHO) cells. All compounds were additionally investigated for their affinity to human A2B and A3 ARs recombinantly expressed in CHO cells to determine their AR subtype selectivity. […] It is well known that all xanthine derivatives lacking a ribose moiety, including tricyclic compounds, can only block ARs, but never act as AR agonists; therefore, additional functional studies were not required. […] Potent MAO-B inhibitors were additionally investigated for inhibition of human MAO-A to assess their selectivity. Results are presented in Tables 1–6, and data of standard ligands are included for comparison.

rat A2A AR = target: T2, rat A2A AR (Rattus norvegicus, UniProt P30543); assay: Radioligand binding assay at rat A2A AR (rat brain striatum) vs. [^3H]MSX-2; settings: rat (r); for % inhibition of radioligand binding at indicated concentration, A2A vs. [^3H]MSX-2: at 1,000 nM; for Ki: rat brain striatum, n = 3, read-out: Ki ± SEM, A2A vs. [^3H]MSX-2
T2 construct: A2A ARs of rat brain striatal membrane preparations; from tissue; host or cells: rat brain striatum membranes
Protocol: as §1, §2

human A3 AR = target: T3, human A3 AR (Homo sapiens, UniProt P0DMS8); assay: Radioligand binding assay at human A3 AR vs. [^3H]PSB-11; settings: for Ki: CHO cell membranes, n = 2 (n = 3 where marked a), read-out: Ki ± SEM, A3 vs. [^3H]PSB-11; for inhibition at 10 µM: at 10,000 nM, read-out: % inhibition of radioligand binding at indicated concentration, A3 vs. [^3H]PSB-11
T3 construct: expressed in transfected cells; host or cells: CHO cells
T3 sequence (P0DMS8 1-318): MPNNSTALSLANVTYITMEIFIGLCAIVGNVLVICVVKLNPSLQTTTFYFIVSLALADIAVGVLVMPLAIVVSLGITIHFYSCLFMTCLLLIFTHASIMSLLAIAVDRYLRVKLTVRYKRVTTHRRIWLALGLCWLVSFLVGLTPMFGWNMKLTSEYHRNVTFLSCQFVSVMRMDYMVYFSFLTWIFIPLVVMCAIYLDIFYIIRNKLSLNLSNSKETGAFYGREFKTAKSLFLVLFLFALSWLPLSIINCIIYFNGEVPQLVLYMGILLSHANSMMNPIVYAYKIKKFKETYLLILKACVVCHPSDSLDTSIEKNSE
Protocol: as §1, §2

human A2B AR = target: T4, human A2B AR (Homo sapiens, UniProt P29275); assay: Radioligand binding assay at human A2B AR vs. [^3H]PSB-603; settings: for Ki: CHO cell membranes, n = 2 (n = 3 where marked a), read-out: Ki ± SEM, A2B vs. [^3H]PSB-603; for inhibition at 1 µM: at 1,000 nM
T4 construct: expressed in transfected cells; host or cells: CHO cells
T4 sequence (P29275 1-332): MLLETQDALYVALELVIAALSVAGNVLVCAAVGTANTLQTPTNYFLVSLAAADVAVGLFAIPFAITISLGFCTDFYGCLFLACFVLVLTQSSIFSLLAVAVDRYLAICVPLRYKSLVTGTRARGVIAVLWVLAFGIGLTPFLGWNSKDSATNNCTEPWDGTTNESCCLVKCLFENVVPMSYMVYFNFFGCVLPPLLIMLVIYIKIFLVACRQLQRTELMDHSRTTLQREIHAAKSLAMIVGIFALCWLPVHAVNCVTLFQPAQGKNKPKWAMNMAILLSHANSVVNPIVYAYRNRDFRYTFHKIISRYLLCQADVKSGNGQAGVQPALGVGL
Protocol: as §1, §2

recombinant human MAO-B = target: T5, recombinant human MAO-B (Homo sapiens, UniProt P27338); assay: Monoamine oxidase assay (Amplex Red), MAO-B; type: biochemical; settings: for inhibition at 10 µM: at 10,000 nM (10 μM), read-out: % inhibition at indicated concentration, Human MAO-B; for IC50: n = 3, read-out: IC50 ± SEM, Human MAO-B
T5 construct: purchased Sigma-Aldrich M7441; host or cells: baculovirus-infected insect cells
T5 sequence (P27338 1-520): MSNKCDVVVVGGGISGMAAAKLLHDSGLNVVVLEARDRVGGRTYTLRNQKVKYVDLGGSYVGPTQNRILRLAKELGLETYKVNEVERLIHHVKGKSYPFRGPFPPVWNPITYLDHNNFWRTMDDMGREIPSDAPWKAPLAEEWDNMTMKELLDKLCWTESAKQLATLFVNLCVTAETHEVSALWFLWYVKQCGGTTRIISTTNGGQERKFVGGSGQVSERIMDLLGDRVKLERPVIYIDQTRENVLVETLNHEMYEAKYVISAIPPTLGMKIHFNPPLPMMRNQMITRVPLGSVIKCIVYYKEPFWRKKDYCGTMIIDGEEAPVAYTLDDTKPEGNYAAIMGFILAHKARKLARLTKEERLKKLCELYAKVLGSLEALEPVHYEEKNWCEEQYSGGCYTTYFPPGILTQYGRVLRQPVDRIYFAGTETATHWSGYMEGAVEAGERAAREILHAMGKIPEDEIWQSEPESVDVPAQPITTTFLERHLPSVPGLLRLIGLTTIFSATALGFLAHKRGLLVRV
Protocol: The determination of MAO-A and MAO-B inhibition was performed using commercially available recombinant human MAO-A and MAO-B enzymes expressed in baculovirus-infected insects sells (Sigma-Aldrich, M7316 and M7441) applying the commercially available Amplex® Red monoamine oxidase assay kit (Invitrogen A12214). The assays were performed as previously described. The determination of rat MAO-B inhibition was performed using mitochondrial-enriched fractions from male Sprague Dawley rat livers. […]

[1] = read-out: % inhibition of radioligand binding at indicated concentration, A2B vs. [^3H]PSB-603

T2 sequence (P30543 whole entry): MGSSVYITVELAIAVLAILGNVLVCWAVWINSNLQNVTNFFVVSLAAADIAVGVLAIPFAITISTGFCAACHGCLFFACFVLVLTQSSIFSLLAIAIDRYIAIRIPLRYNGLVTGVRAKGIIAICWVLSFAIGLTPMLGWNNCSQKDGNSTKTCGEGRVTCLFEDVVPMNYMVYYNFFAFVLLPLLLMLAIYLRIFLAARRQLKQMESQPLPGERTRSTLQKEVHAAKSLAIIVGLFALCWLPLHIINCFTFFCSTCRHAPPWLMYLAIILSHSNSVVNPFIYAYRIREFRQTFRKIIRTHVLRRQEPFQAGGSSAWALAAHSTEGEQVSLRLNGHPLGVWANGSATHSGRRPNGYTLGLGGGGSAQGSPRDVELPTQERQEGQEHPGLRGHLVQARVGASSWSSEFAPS

Ki (rat A1 AR) | inhibition at 1.5 µM (rat A1 AR) | % inhibition of radioligand binding at indicated concentration, A2A vs. [^3H]MSX-2 (rat A2A AR) | Ki (rat A2A AR) | Ki (human A3 AR) | inhibition at 10 µM (human A3 AR) | Ki (human A2B AR) | inhibition at 0.3 µM (human A2B AR; at 300 nM, read-out: % inhibition of radioligand binding at indicated concentration, A2B vs. [^3H]PSB-603) | inhibition at 10 µM (recombinant human MAO-B) | IC50 (recombinant human MAO-B) | inhibition at 1 µM (human A2B AR; [1]) | inhibition at 0.1 µM (human A2B AR; at 100 nM, read-out: % inhibition of radioligand binding at indicated concentration, A2B vs. [^3H]PSB-603) | Structure (SMILES)
> 1500 nM | 9% | 4% | > 1000 nM | > 10000 nM | 39% | > 300 nM | 8% | 47% | ~10000 nM | – | – | Cn1c(=O)[nH]c(=O)c2c1nc1n2CCN(CCc2cccc(C(F)(F)F)c2)C1 [Compound 13e, 1-methyl-8-(3-(trifluoromethyl)phenethyl)-6,7,8,9-tetrahydropyrazino[2,1-f]purine-2,4(1H,3H)-dione]
> 1500 nM | 6% | 13% | > 1000 nM | > 10000 nM | 40% | > 1000 nM | – | 27% | > 10000 nM | 7% | – | CCn1c(=O)c2c(nc3n2CCN(Cc2cc(C(F)(F)F)cc(C(F)(F)F)c2)C3)n(CC)c1=O [Compound 15q, 8-(3,5-bis(trifluoromethyl)benzyl)-1,3-diethyl-6,7,8,9-tetrahydropyrazino[2,1-f]purine-2,4(1H,3H)-dione]
> 1500 nM | -1% | 5% | > 1000 nM | > 10000 nM | 35% | > 1000 nM | – | 14% | > 10000 nM | 2% | – | Cn1c(=O)[nH]c(=O)c2c1nc1n2CCN(Cc2cccc(C(F)(F)F)c2)C1 [Compound 13b, 1-methyl-8-(3-(trifluoromethyl)benzyl)-6,7,8,9-tetrahydropyrazino[2,1-f]purine-2,4(1H,3H)-dione]
3800 nM | – | – | 7400 nM | > 10000 nM | 12% | > 1000 nM | – | 3% | > 10000 nM | 9% | – | C#CCn1c(=O)c2c(nc3n2CCN(CCc2ccc(OC)c(OC)c2)C3)n(CC)c1=O [Compound 20l]
> 1500 nM | 41% | 19% | > 1000 nM | 1690 nM | – | > 1000 nM | – | 5% | > 10000 nM | 16% | – | CCn1c(=O)c2c(nc3n2CCN(Cc2ccc(Cl)cc2C(F)(F)F)C3)n(CC)c1=O [Compound 15o, 8-(4-chloro-2-(trifluoromethyl)benzyl)-1,3-diethyl-6,7,8,9-tetrahydropyrazino[2,1-f]purine-2,4(1H,3H)-dione]
> 1500 nM | 1% | 15% | > 1000 nM | ~10000 nM | 45% | > 1000 nM | – | – | – | 1% | – | Cn1c(=O)[nH]c(=O)c2c1nc1n2CCN(CCc2cccc(Br)c2)C1 [Compound 13d, 8-(3-bromophenethyl)-1-methyl-6,7,8,9-tetrahydropyrazino[2,1-f]purine-2,4(1H,3H)-dione]
> 1500 nM | 9% | 7% | > 1000 nM | 18600 nM | – | > 100 nM | – | 32% | > 10000 nM | – | 1% | CCn1c(=O)c2c(nc3n2CCN(Cc2ccc(C(F)(F)F)cc2)C3)n(C)c1=O [Compound 14f, 3-ethyl-1-methyl-8-(4-(trifluoromethyl)benzyl)-6,7,8,9-tetrahydropyrazino[2,1-f]purine-2,4(1H,3H)-dione]
1600 nM | – | – | 2700 nM | > 10000 nM | 22% | > 1000 nM | – | 25% | > 10000 nM | 10% | – | C#CCn1c(=O)c2c(nc3n2CCN(CCc2ccc(OC)cc2)C3)n(CC)c1=O [Compound 20k, 1-ethyl-8-(4-methoxyphenethyl)-3-propargyl-6,7,8,9-tetrahydropyrazino[2,1-f]purine-2,4(1H,3H)-dione]
1670 nM | – | – | 1580 nM | 3640 nM | – | > 1000 nM | – | 13% | > 10000 nM | 8% | – | C#CCn1c(=O)c2c(nc3n2CCN(c2ccc(OC)c(OC)c2)C3)n(CC)c1=O [Compound 20d, 8-(3,4-dimethoxyphenyl)-1-ethyl-3-propargyl-6,7,8,9-tetrahydropyrazino[2,1-f]purine-2,4(1H,3H)-dione]
> 1500 nM | 3% | 1% | > 1000 nM | > 10000 nM | 49% | > 1000 nM | – | 54% | ~10000 nM | 18% | – | Cn1c(=O)[nH]c(=O)c2c1nc1n2CCN(CCc2cccc(Cl)c2)C1 [Compound 13c, 8-(3-chlorophenethyl)-1-methyl-6,7,8,9-tetrahydropyrazino[2,1-f]purine-2,4(1H,3H)-dione]
1140 nM | – | – | 1380 nM | 4270 nM | – | > 1000 nM | – | 29% | > 10000 nM | 8% | – | C#CCn1c(=O)c2c(nc3n2CCN(c2ccccc2F)C3)n(CC)c1=O [Compound 20a, 1-ethyl-8-(2-fluorophenyl)-3-propargyl-6,7,8,9-tetrahydropyrazino[2,1-f]purine-2,4(1H,3H)-dione]
